According to patent US20050256161A1, “Melanin concentrating hormone receptor antagonists” (priority 2003, published 2005):

Assays:
human MCH receptor = target: T1, human MCH receptor (Homo sapiens, UniProt Q99705); assay: hMCH FLIPR calcium mobilization functional assay; type: cell-based
T1 construct: expressed in transfected cells

rat MCH1 receptor = target: T2, rat MCH1 receptor (Rattus norvegicus, UniProt P97639); assay: rMCH FLIPR calcium mobilization functional assay; type: cell-based; settings: CHOK1-Gqi cells
T2 construct: expressed in transfected cells
Method: Pharmacological analyses were conducted using either a HT-PS100 device (Axiom Biotechnologies, San Diego, Calif.), which provides high-resolution dose-response fluorometric measurements of [Ca^++]i mobilization, or using a FLIPR® device (Molecular Devices, Sunnyvale, Calif.).
Materials: Pharmacological analysis was conducted using a FLIPR® device (Molecular Devices, Sunnyvale, Calif.). CHOK1-Gqi cells were stably transfected with the rat MCH1 receptor and maintained under G418 antibiotic pressure. FLIPR® assay buffer consisted of phenol red-free DMEM+2.5 mM probenecid. MCH peptide (Amgen, Inc.) was reconstituted in assay buffer and served as the positive agonist control for all experiments. Test compounds were prepared as 10 mM stocks in 100% DMSO and diluted to a top end working concentration of 10 μM in 96 well black, flat bottom, collagen-I coated plates (Becton Dickinson, Bedford, Mass.).
Methods: CHOK1-Gqi cells stably expressing MCH1R were maintained in Dulbeco's modified Eagle's medium (GIBCO/Life Technologies, Rockville, Md.) supplemented with 2 mM glutamine and 10% dialyzed fetal bovine serum (HyClone, Logan, Utah) at 37° C., 5% CO2. Cells were harvested by 10′ treatment with Versene (GIBCO/Life Technologies) followed by trituration, washing twice with cold (4° C.) hybridoma medium (Serum/Protein free, with L-glutamine, sodium bicarbonate, MOPS buffer) (Sigma-Aldrich Corp, St. Louis, Mo.) and replated onto 96 well black, flat bottom, collagen-I coated plates to a density of 10,000 cells/well. The cells were then loaded with the fluorescent calcium indicator Fura-2 (Molecular Probes, Eugene, Oreg.) at 1.6 μM for 60′ at room temperature. The loaded cells were then washed twice with 90 μl/well of wash buffer (1×HBSS, 20 mM HEPES, 2.5 mM probenecid).
Receptor-stimulated intracellular calcium responses were detected using FLIPR® by monitoring increases in the Fura-2 fluorescence response.
Test compounds were screened for MCH1R activity in the FLIPR® for both agonist and antagonist action. Agonist mode challenges were conducted at a maximum gradient concentration of 1 μM. Antagonist activity was tested by 10 min pre-incubation of cells at a compound concentration of defined to be 300× the EC50 of MCH (typically 1 μM), with subsequent introduction of MCH at a concentration 5-fold of EC50 as determined in preliminary experiments.
Schild experiments were conducted on the FLIPR® for selected compounds by co-administering antagonist compounds together with MCH peptide. Several fixed concentrations of antagonist compounds were prepared in 10-fold increments, and presented to the cells in a gradient of increasing MCH concentration. Values for compound pA2 were calculated by linear regression of MCH EC50s as a function of antagonist concentration.

[1] = target: T3, rat MCH 1 receptor (rMCH1R) (Rattus norvegicus, UniProt P97639); assay: Ligand binding assay (125I native-MCH), rMCH; settings: rMCH1R expressed in HEK 293, membranes, 0.2 nM 125I native-MCH
T3 construct: expressed in transfected cells; host or cells: HEK 293 (membrane preparation)
Method: (§1) Human embryonic kidney cells (293 total) expressing either human, rat, or mouse MCH receptor were harvested from 150 mm culture dishes using PBS. Spinning at 1500 rpm for 2 minutes initially pelleted cells. The resulting pellet was then homogenized in 15 mL ice cold sucrose buffer (25 mM HEPES, 0.3 M sucrose, pH 7.4) with a motorized, glass fitted, Teflon® homogenizer. The homogenate was centrifuged at 48,000×g at 4° C. for 10 minutes, resuspended in 15 mL assay buffer (25 mM HEPES, 10 mM MgCl2, 0.2% BSA, 0.1 mg/mL STI, 0.1 mg/mL Pefabloc®, 1 μM Phosphoramidon, pH 7.4) with a Tissue-Tearor® (Biospec Products) and centrifuged again at 48,000×g for 10 minutes. The pellet was homogenized for a third time in 15 mL assay buffer using the Tissue-Tearor® and again centrifuged at 48,000×g for 10 minutes. The resulting pellet was resuspended in assay buffer at a wet weight concentration of 10-20 mg/mL.
(§2) Binding assays were determined as described below using mouse, rat or human MCH 1 receptors (mMCH1R, rMCH1R, and hMCH1R, respectively) expressed in HEK 293; IC50 values were calculated.
(§3) Binding assays were performed in 96-well U-bottom plates. Membranes (100 μg tissue) were incubated at 30° C. for 90 minutes in assay buffer with various peptides in the presence of 0.2 nM 125I native-MCH (Perkin-Elmer Life Sciences, Boston, Mass.) in 100 μL total volume. Non-specific binding was assessed in the presence of 1 μM cold native-MCH. The reaction was terminated by rapid filtration through Unfilter-96 GF/C glass fiber filter plates (FilterMate® 196 Harvester, Packard Instrument Co., Meriden, Conn.) pre-soaked in PBS/0.5% BSA, followed by three washes with 300 μL ice-cold water. Bound radioactivity was determined using a TopCount® microplate scintillation and luminescence counter (Packard Instrument Co., Meriden, Conn.). Nonlinear regression analyses of drug concentration curves were performed using GraphPad Prism® (GraphPad Software, Inc., San Diego, Calif.).

[2] = target: T4, human MCH 1 receptor (hMCH1R) (Homo sapiens, UniProt Q99705); assay: Ligand binding assay (125I native-MCH), hMCH; settings: hMCH1R expressed in HEK 293, membranes, 0.2 nM 125I native-MCH
T4 construct: expressed in transfected cells; host or cells: HEK 293 (membrane preparation)
Method: as §1, §2, §3

T1 sequence (Q99705 whole entry): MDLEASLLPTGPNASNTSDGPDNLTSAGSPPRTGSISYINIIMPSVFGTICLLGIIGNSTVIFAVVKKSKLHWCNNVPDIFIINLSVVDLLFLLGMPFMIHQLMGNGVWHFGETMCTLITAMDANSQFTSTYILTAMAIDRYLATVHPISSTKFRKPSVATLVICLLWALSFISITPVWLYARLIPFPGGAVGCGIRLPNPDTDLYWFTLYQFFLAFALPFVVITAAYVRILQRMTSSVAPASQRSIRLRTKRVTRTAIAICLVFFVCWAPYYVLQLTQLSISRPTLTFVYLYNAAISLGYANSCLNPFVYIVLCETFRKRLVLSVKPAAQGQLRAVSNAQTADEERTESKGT
T4 sequence (Q99705 whole entry): as above
T2 sequence (P97639 whole entry): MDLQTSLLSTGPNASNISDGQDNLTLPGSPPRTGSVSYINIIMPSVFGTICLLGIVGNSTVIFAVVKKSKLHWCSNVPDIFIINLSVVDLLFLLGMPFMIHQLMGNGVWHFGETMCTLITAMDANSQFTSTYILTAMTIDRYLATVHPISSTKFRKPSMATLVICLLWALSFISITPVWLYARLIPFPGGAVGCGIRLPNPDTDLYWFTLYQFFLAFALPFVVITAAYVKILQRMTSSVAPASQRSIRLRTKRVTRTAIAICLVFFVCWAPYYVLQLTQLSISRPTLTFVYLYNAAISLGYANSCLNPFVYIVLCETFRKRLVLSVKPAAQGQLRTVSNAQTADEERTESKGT
T3 sequence (P97639 whole entry): as above

Row | Compound | Ki (human MCH receptor; threshold 100 μM or less) [µM] | Ki (rat MCH1 receptor; threshold 100 μM or less) [µM] | IC50 ([1]; threshold 100 nM or less) [µM] | IC50 ([1]; threshold 100 μM or less) [µM] | IC50 ([2]; threshold 100 nM or less) [µM] | IC50 ([2]; threshold 100 μM or less) [µM] | Ki (human MCH receptor; threshold 100 nM or less) [µM] | Ki (rat MCH1 receptor; threshold 100 nM or less) [µM]
1 | Cc1ccc(Oc2ccc(C(=O)NCCN3CCCC3)cc2NC(=O)Nc2cc(F)cc(F)c2)cc1C [Compound 58, 3-[3-(3,5-difluorophenyl)ureido]-4-(3,4-dimethylphenoxy)-N-(2-pyrrolidin-1-yl-ethyl)benzamide] | ≤ 100 | ≤ 100 | ≤ 0.1 | ≤ 100 | ≤ 0.1 | ≤ 100 |  | 
2 | Cc1ccc(Oc2ccc(C(=O)NCCN3CCCC3)cc2NC(=O)Nc2ccccc2)cc1C [Compound 1, 4-[(3,4-dimethylphenyl)oxy]-3-{[(phenylamino)carbonyl]amino}-N-(2-(1-pyrrolidinyl)ethyl)benzamide] | ≤ 100 | ≤ 100 | ≤ 0.1 | ≤ 100 | ≤ 0.1 | ≤ 100 | ≤ 0.1 | ≤ 0.1
